Key:
[1] = tested on: Mycobacterium tuberculosis; test: Antibacterial activity against Mycobacterium bovis BCG infected in human THP1 cells assessed as viral infection at 10 uM after 24 hrs relative to control; format: functional, variant bovis BCG, THP-1
[2] = tested on: Mycobacterium tuberculosis; test: Antibacterial activity against Mycobacterium bovis BCG infected in human THP1 cells assessed as viral infection at 20 uM after 48 hrs relative to control; format: functional, variant bovis BCG, THP-1

SMILES | Activity [1] [%] | Activity [2] [%]
COc1ccc(C(=O)/C=C/c2ccc3ccccc3c2)cc1OC | 63.8 | 32.9
COc1ccc(OC)c(C(=O)/C=C/c2cccc3ccccc23)c1 | 108.6 | 46.3
COc1ccc(OC)c(C(=O)/C=C/c2ccc3ccccc3c2)c1 | 117.7 | 234.9
COc1cc(C(=O)/C=C/c2ccc3ccccc3c2)ccc1O | 72.9 | 8.5
O=C(/C=C/c1cccc2ccccc12)c1ccccc1O | 180.8 | 71.3
